Source: US10660900B2 (priority 2014, dated 2020)
“And” between values parts separate entries of the source, which are not always exact repeats. Equal values may be shown once. “Also recorded” adds a separate entry of the source.

How the values were obtained:
[1] = tested on: human opioid receptor delta (OPRD); details: Pearl, Herrick-Davis et al. 1995; cited from earlier work
[2] = target: opioid receptor delta (OPRD) (Bos taurus, UniProt F1N083); details: printed in the SEM column; literature; cited from earlier work
[3] = Cold pressor test in healthy volunteers; format: in vivo, human; details: 3-60 mg single oral doses versus placebo; hand immersion duration and VAS pain score
Protocol: Analgesic effect was assessed based on duration of hand immersion in ice water and on visual analog scale (VAS) pain scores upon hand removal from the water bath.
(§1) Safety and tolerability of noribogaine were tested in the group of volunteers from Example 1. Cold pressor testing was conducted in 1° C. water according to the method of Mitchell et al. (J Pain 5:233-237, 2004) pre-dose, 6, 24, 48, 72 and 216 hours post-dosing. Safety evaluations included clinical monitoring, recording of adverse events (AEs), safety laboratory tests, vital signs, ECG telemetry from −2 h to 6 h after dosing, and 12-lead electrocardiograms (ECGs) up to 216 hours post-dosing.

[4] = target: T1, OPRK (Homo sapiens, UniProt P41145); test: biochemical; set-up: expressed in transfected cells; host or cells: CHO-K1
[5] = target: T1, OPRK; test: cell-based; set-up: host or cells: CHO-K1
[6] = Single ascending oral dose pharmacokinetics of noribogaine in healthy volunteers (plasma and urine, LCMSMS); details: for CL/F: mean (SD), n = 6
[7] = rats; centrally mediated; Baumann, Rothman et al. 2001; cited from earlier work
[8] = target: T2, human OPRM (Homo sapiens, UniProt P35372); test: biochemical; format: binding; set-up: expressed in transfected cells; host or cells: CHO-K1 (cell line provided by Dr. Toll, Torrey Pines Institute); membranes prepared in house
[9] = Safety and tolerability in healthy volunteers (adverse events, ECG, vital signs, oximetry); format: in vivo, human
Protocol: Pulse oximetry and capnography data were collected continuously using a GE Carescape B650 monitoring system from 2 hours prior to dosing and until six hours after dosing, and thereafter at 12, 24, 48 and 72 hours post-dosing. Additional oximetry data were collected at 120, 168 and 216 hours. Pupillary miosis was assessed by pupillometry. Dark-adapted pupil diameter was measured in triplicate using a Neuroptics PLR-200 pupillometer under standardized light intensity (<5 lux) pre-dose, and at 2, 4, 6, 12, 24, 48, 72, 96, 120, 168 and 216 hours post-dosing.
as §1

[10] = tested on: human OPRK; test: biochemical; format: binding
[11] = target: T2, human OPRM; format: cell-based; set-up: host or cells: CHO-K1
[12] = Time to resumption of opioid substitution treatment and withdrawal scales (COWS, SOWS, OOWS); format: in vivo, human
[13] = target: T1, OPRK; test: Bias quantification G-protein/Beta-arrestin2; set-up: expressed in transfected cells; host or cells: CHO-K1
Protocol: Coupling efficiency (e-coupling) values indicated the relationship between the apparent binding affinity Ki versus the apparent functional potency EC50 of a given agonist ligand and used the equation pKi-pEC50. […] For inhibitory ligands, e-signal was calculated using maximal level of inhibition (Imax) normalized from 0 (basal, buffer) to 1 (agonist without inhibitor). Bias-coupling (quantification of pathway bias) was evaluated by subtracting the EC50 or the Ke issued from the G-protein pathway assays by those issued from β-arrestin pathway assays for a given ligand and in a linear (nM) scale. Bias-efficacy in favor of the G-protein pathway was evaluated by dividing the functional activation and the functional inhibition maximum responses (e-signal) from the G-protein pathway by the beta-arrestin pathway assays for a given ligand.

T2 sequence (P35372 whole entry): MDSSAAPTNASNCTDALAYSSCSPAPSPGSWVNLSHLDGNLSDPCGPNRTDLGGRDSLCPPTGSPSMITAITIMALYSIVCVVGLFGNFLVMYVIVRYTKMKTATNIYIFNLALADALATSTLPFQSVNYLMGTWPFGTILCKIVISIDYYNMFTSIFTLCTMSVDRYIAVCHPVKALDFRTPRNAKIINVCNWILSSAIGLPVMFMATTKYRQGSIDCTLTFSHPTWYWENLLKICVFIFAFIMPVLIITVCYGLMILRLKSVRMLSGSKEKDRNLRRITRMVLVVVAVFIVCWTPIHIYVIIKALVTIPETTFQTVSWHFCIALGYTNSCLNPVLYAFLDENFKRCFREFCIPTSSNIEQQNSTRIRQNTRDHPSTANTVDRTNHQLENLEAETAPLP
T1 sequence (P41145 whole entry): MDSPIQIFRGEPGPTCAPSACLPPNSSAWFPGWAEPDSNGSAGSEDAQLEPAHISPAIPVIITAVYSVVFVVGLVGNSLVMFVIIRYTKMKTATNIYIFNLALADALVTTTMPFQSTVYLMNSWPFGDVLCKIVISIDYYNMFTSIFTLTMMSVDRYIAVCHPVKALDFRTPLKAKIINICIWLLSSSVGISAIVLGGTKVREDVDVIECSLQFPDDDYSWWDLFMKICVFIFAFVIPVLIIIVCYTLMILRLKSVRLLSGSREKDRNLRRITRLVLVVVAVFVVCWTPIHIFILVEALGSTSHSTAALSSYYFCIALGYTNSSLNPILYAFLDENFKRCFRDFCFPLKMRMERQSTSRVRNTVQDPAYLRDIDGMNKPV
opioid receptor delta (OPRD), sequence (F1N083 1-372): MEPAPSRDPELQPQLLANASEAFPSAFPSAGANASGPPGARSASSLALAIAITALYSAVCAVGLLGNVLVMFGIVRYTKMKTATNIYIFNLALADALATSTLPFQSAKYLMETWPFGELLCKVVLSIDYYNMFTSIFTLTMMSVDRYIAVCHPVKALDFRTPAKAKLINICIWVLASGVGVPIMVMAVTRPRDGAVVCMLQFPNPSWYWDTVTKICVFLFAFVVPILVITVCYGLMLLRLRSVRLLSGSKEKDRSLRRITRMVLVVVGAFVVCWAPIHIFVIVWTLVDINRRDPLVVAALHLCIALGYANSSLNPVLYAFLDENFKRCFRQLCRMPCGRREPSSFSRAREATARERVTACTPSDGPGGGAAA

Structure (SMILES): CC[C@H]1CC2C[C@H]3c4[nH]c5ccc(O)cc5c4CCN(C2)C13 [Noribogaine, noribogaine]
- less affine at OPRD than at OPRK [1]: ~30 ×
- Ki [2]: 24.7 µM
- analgesic effect in the cold pressor test [3]: no analgesic effect
- Efficacy (Emax) [4]: 70%
- Efficacy (inhibition) [4]: −30% and −25%
- e-coupling (pKi-pEC50) [4]: 1.08
- e-coupling, G-protein Pathway [4]: 1.72 and 1.08
- own reduced signal level to which rival agonist signal is leveled down [4]: 70%
- pEC50 [4]: 5.1
- Ki ([4]; Ke): 12 µM and 24 µM
- EC50 ([4]; read-out: EC50): 8.75 µM and 8.7 µM
- Emax ([4]; read-out: Efficacy (Emax)): 72 ± 3.8%
- EC50 [5]: 0.265 µM
- e-coupling (pKi-pEC50) ([5]; Activation): −0.43
- e-coupling, Beta-Arrestin2 Pathway ([5]; Activation): −0.43
- e-signal, Beta-Arrestin2 Pathway ([5]; Activation): 0.13
- pEC50 ([5]; Activation): 6.6
- Emax ([5]; CHO-K1, read-out: Efficacy (Emax)): 12.6 ± 3%
- inhibition of agonist response ([5]; Dynorphin A at EC80): ~60%
- e-coupling, Beta-Arrestin2 Pathway ([5]; Inhibition): −0.44
- e-signal, Beta-Arrestin2 Pathway ([5]; Inhibition): 0.60
- e-coupling (pKi-pKe) ([5]; inhibitory component): −0.44
- Efficacy (inhibition) ([5]; inhibitory component against Dynorphin A): −60~ %
- CL/F ([6]; 3 mg single oral noribogaine): 41.4 (7.0) L/h
- CL/F ([6]; 10 mg single oral noribogaine): 42.3 (12.0) L/h
- CL/F ([6]; 30 mg single oral noribogaine): 46.9 (16.4) L/h
- CL/F ([6]; 60 mg single oral noribogaine): 34.0 (11.4) L/h
- dose relation of Cmax and AUC ([6]; 3-60 mg single oral doses): increased linearly with dose
- Volume of distribution ([6]; across dose groups): 1417 to 3086 L
- time of peak concentrations after oral noribogaine dosing ([6]; plasma, across dose groups): 2 to 3 h
- release of prolactin [7]: triggered the release of prolactin
- pKi [8]: 5.8
- number of adverse events reported ([9]; 3 mg dose group, two subjects): five
- adverse events, Mild ([9]; 3 mg noribogaine): Back pain; also recorded: Dizziness; also recorded: Epistaxis; also recorded: Headache
- adverse events, Moderate ([9]; 3 mg noribogaine): Headache
- number of adverse events reported ([9]; 10 mg dose group, single subject): one
- adverse events, Mild ([9]; 10 mg noribogaine): Headache
- number of adverse events reported ([9]; 30 mg dose group, single subject): one
- adverse events, Mild ([9]; 30 mg noribogaine): Headache
- oximetry, capnography, respiratory rate ([9]; 3-60 mg single oral doses): no changes in oximetry or capnography, or changes in respiratory rate
- vital signs and safety laboratory tests ([9]; 3-60 mg single oral doses): no changes in vital signs or safety laboratory tests of note
- QTcF values above 500 msec ([9]; all dose groups, any time): no QTcF values >500 msec
- single increase in QTcF ([9]; one subject, 10 mg noribogaine, 24 hours post-dosing): > 60 ms
- ΔpKi = pKi(OPRK) − pKi(OPRM), OPRK Specificity ([10]; from literature (or literature/this work) values): 0.4
- ΔpKi = pKi(OPRK) − pKi(OPRM), OPRK Specificity ([10]; from values of this work): 0.3
- Efficacy [11]: 3%
- Efficacy (inhibition) [11]: −100~ %
- agonism of β-Arrestin-2 recruitment at OPRM [11]: not an agonist at OPRM
- e-coupling (pKi-pKe) [11]: ~1.10
- inhibition of agonist response [11]: 60-100%
- pEC50 [11]: 5.9
- withdrawal symptoms (COWS, OOWS, SOWS), first six hours after dosing ([12]; 120 mg noribogaine): fewer withdrawal symptoms than the other patients
- average time to resumption of opioids (OST) ([12]; single 120 mg dose): greater than 20 hours
- efficacy bias relative to 6′GNTI [13]: 2.4 ×
- Bias-coupling, Bias G-protein/Beta-arrestin2 ([13]; Activation): 32
- Bias-efficacy, Bias G-protein/Beta-arrestin2 ([13]; Activation): 0.59
- Bias-coupling, Bias G-protein/Beta-arrestin2 ([13]; Inhibition): 144
- Bias-efficacy, Bias G-protein/Beta-arrestin2 ([13]; Inhibition): −0.35
